Laboratory results as given in patent EP0604653A1, “COMPLEX OF COMPOUND HAVING CHALCONE SKELETON” (TAISHO PHARMACEUTICAL CO. LTD, priority 1991, dated 1993).

Tests used:
[1] = Test of absorbability after oral capsule administration (cross-over, Latin square); type: in vivo; conditions: beagles, dose of SU-740 100 mg/kg, FIG. 5
Experimental: The test was conducted by a cross-over testing method according to a Latin square method using 15 beagles divided into three groups each consisting of 5 test animals. Each sample was put in a capsule and orally given to the animal so as to make a dose of SU-740 become 100 mg/kg.

[2] = system: PGE₂ Content in Rat Gastric Mucosa; experiment: PGE₂ content in gastric mucosa after dosing (radioimmunoassay); type: in vivo; conditions: rats, i.d., dose of SU-740 31.4 mg/kg (Complex 200.0 mg/kg)
Experimental: The test was carried out in accordance with the method described in M. Muramatsu et al., Life Science, Vol. 41, p. 315 (1987). The sample dispersed in a 1 % gum arabic suspension was intraduodenally administered to rats having been deprived of food for 24 hours so as to make a dose of SU -740 become 31.4 mg/kg. After 24 hours from the administration, the gastric mucosa was excised under anesthesia with ether and 2 mℓ of a 20 µM anhydrous solution of Indomethacin was added thereto, followed by homogenization. After allowing to stand for 1 hour, the homogenate was subjected to centrifugation at 3000 rpm for 10 minutes and the supernatant liquor (PG mixture) was lyophilized. The resulting PG mixture was suspended in distilled water, and extracted with methanol by means of a column (vac elute). Then the extract was lyophilized, and subjected to measurement by means of a radioimmunoassay kit.

[3] = system: Prostaglandin (PG) Metabolic Enzyme; experiment: PG metabolic enzyme activity in excised gastric mucosa after dosing (decomposition of PGE₁ as index); type: in vivo; conditions: rats, i.d., dose of SU-740 31.4 mg/kg (Complex 200.0 mg/kg)
Experimental: The test was carried out in accordance with the method described in M. Muramatsu et al., Biochemical Pharmacology, Vol. 33(16), p. 2629 (1984). The sample dispersed in a 1 % gum arabic suspension was intraduodenally administered to rats having been deprived of food for 24 hours so as to make a dose of SU-740 become 31.4 mg/kg. Two hours later, the gastric mucosa was excised, and a PG metabolic enzyme was extracted therefrom and analyzed with a spectrophotometer. The effect was examined taking decomposition of PGE₁ as an index.

[4] = system: Histamine-Induced Ulceration; experiment: Histamine-induced ulceration, area of lesions; type: in vivo; conditions: rats, i.d., dose of SU-740 31.4 mg/kg (Complex 200.0 mg/kg); histamine 300 mg/kg i.p. 3 hours later, lesion area 4 hours thereafter
Experimental: The test was carried out in accordance with the method described in M. Muramatsu et al., Arzeneim. Forsch., Vol. 40(I)1, p. 49 (1990). The sample dispersed in a 1 % gum arabic suspension was intraduodenally administrated to rats having been deprived of food for 24 hours so as to make a dose of SU-740 become 31.4 mg/kg. Three hours later, 300 mg/kg of histamine was intraperitoneally administered, and 4 hours thereafter the abdomen was opened, and the area of lesions was measured to evaluate the inhibitory effect on mucosal lesions.

Gastric Acid Secretion = experiment: Gastric acid secretion in conscious dog with chronic fistula, stimulated by 2-deoxy-D-glucose; type: in vivo; conditions: p.o., table doses: SU-740 200.0 mg/kg, Complex 200.0 (31.4 as SU-740) mg/kg
Experimental: The test was carried out in accordance with the method described in Gastroenterology, Vol. 85, p. 900 (1983). A dog to which a fistula had been chronically fitted was deprived of food for 20 hours. […] One hour later, 300 mg/kg of 2-deoxy-D-glucose was intravenously injected. Two hours from the injection, the gastric acid secretion was measured.

[5] = system: Hydrochloric Acid-Induced Lesion; experiment: Hydrochloric acid-induced gastric mucosal lesion, length of ulcerations; type: in vivo, rat; conditions: rats, intraduodenal, dose of SU-740 10, 35 or 60 mg/kg, 0.6 N hydrochloric acid 1 hour later; FIG. 6
Experimental: Seventy-two rats divided into 9 groups each consisting of 8 animals were used. A 0.2 mℓ/100 g of the sample dispersed in a 5 % gum arabic suspension was intraduodenally administered to a rat so as to make a dose of SU-740 become 10 mg, 35 mg or 60 mg per kg-body weight. β-Cyclodextrin was similarly administered at a dose corresponding to the SU-740 content in the complex obtained in Example 2. On hour later, 1 mℓ of 0.6 N hydrochloric acid was administered, and 1 hour thereafter the abdomen was opened, and the length of the ulcerations was measured to evaluate the inhibitory effect on mucosal lesions.

| absorbability [1] | Structure (SMILES) | activity at 31.4 mg/kg ([2]; Rattus norvegicus, intraduodenal, PGE₂ content, read-out: % of Control) | PGE₂ Content (pg/g wet weight) ([2]; gastric mucosa 24 hours after administration) | % of Control ([3]; PG metabolic enzyme activity) | PG Metabolic Enzyme Activity (nmol/mg protein/min) ([3]; gastric mucosa excised two hours later) | Inhibitory Ratio (%) [4] | Inhibitory Ratio (%) (Gastric Acid Secretion; gastric acid secretion) | Gastric Acid Secretion (mEq/1 hr) (Gastric Acid Secretion; 2-deoxy-D-glucose 300 mg/kg i.v. one hour later) | inhibitory effect on mucosal lesions [5] |
| --- | --- | --- | --- | --- | --- | --- | --- | --- | --- |
| scarcely absorbed | CC(C)=CCOc1ccc(C(=O)/C=C/c2ccc(C(C)(C)C)cc2)c(OCC(=O)O)c1 [SU-740, 4-t-butyl-2'-carboxymethoxy-4'-(3-methyl-2-butenyloxy)chalcone] | 396% | 309.1±57.0 pg/g wet weight | 81.3% | 0.61±0.05 nmol/mg protein/min | 66.7% | 20.9% | 12.1±2.1 mEq/1 hr |  |
|  | OC[C@H]1O[C@@H]2O[C@H]3[C@H](O)[C@@H](O)[C@@H](O[C@H]4[C@H](O)[C@@H](O)[C@@H](O[C@H]5[C@H](O)[C@@H](O)[C@@H](O[C@H]6[C@H](O)[C@@H](O)[C@@H](O[C@H]7[C@H](O)[C@@H](O)[C@@H](O[C@H]8[C@H](O)[C@@H](O)[C@@H](O[C@H]1[C@H](O)[C@H]2O)O[C@@H]8CO)O[C@@H]7CO)O[C@@H]6CO)O[C@@H]5CO)O[C@@H]4CO)O[C@@H]3CO [β-Cyclodextrin, β-cyclodextrin] |  |  |  |  |  |  |  | little effect |
